What all share (assay type): in vivo, BALB/c mice
In test [1] the test system is Brucella melitensis 16M. The note with it: 1 mg ciprofloxacin/mouse intramuscularly, 5 × 10^4 CFU.
Test [2] concerns Brucella melitensis 16M. The note with it: intramuscular; 1 mg antibiotic/mouse on days 7, 8 and 9; sacrificed day 12.
The subject of test [3] is Brucella melitensis 16M. The note with it: 1 mg/mouse intramuscularly.

The values that follow come from patent US6221386A (priority 1996, dated 2001).

Where two headings read alike, the source gives them in different places.

Turning to `O=C(O)c1cn(C2CC2)c2cc(N3CCNCC3)c(F)cc2c1=O` [Ciprofloxacin, ciprofloxacin], the “B. melitensis 16M counts in spleens 7 days after infection” value with Brucella melitensis 16M [1] (single dose 1 day before infection) is reported as 1.5 ± 0.3 × 10^4; with Brucella melitensis 16M [1] (single dose 2 days before infection), 2.8 ± 1.0 × 10^4; in the test with Brucella melitensis 16M [1] (single dose 3 days before infection) it was 1.4 ± 0.2 × 10^4; in the test with Brucella melitensis 16M [1] (single dose 7 days before infection), 1.9 ± 0.4 × 10^4; with Brucella melitensis 16M [3] (single dose 1 day after infection (title; head prints before)), 1.6 ± 0.3 × 10^4; in the test with Brucella melitensis 16M [3] (single dose 2 days after infection (title; head prints before)), 13.0 ± 0.6 × 10^4. The “B. melitensis 16M counts in spleens 7 days after infection” value is on record as 3.5 ± 0.9 × 10^4 in the test with Brucella melitensis 16M [3] (single dose 3 days after infection (title; head prints before)) and 3.9 ± 1.6 × 10^4 in the test with Brucella melitensis 16M [3] (single dose 7 days after infection (title; head prints before)). The “Spleen counts after antibiotic was given” value with Brucella melitensis 16M [2] is reported as 1.3 ± 0.4 × 10^4.
Consider `CN(C)C1C(=O)C(C(N)=O)=C(O)C2(O)C(=O)C3=C(O)c4c(O)cccc4C(C)(O)C3CC12` (stereo not shown) [Tetracycline, tetracycline], for which the “Spleen counts after antibiotic was given” value in the test with Brucella melitensis 16M [2] is recorded as 4.8 ± 0.8 × 10^3.
